Results as given in article PMC7947795, “Rapamycin-Loaded Lipid Nanocapsules Induce Selective Inhibition of the mTORC1-Signaling Pathway in Glioblastoma Cells” (Frontiers in Bioengineering and Biotechnology, 2021).

Assays:
[1] = Rapamycin solubility assay in oils (RP-HPLC); type: physicochemical
Protocol: […] […] The mixture of 90% acetonitrile and 10% water (v/v) was used as a mobile phase, and delivered at a flow rate of 2.0 mL/min. The injection volume was 10 μL and the retention time was about 2.3 min.

U87MG cells [2] = assay: MTS cytotoxicity assay; type: cell-based; settings: Homo sapiens, U-87 MG, serum-free medium, 4 h treatment, read at 48 h
Protocol: Two assays were performed to determine the cytotoxicity effect of LNC-rapa on the glioblastoma cell line U87MG:MTS (3-(4,5-dimethylthiazol-2-yl)-5-(3-carboxymethoxyphenyl)-2-(4-sulfophenyl)-2H-tetrazolium) (Promega, Charbonnières, France) and clonogenic assay by crystal violet coloration (Sigma-Aldrich).
For the MTS assay, U87MG cells (5 × 10^4 cells/mL) harvested in the exponential growth phase were seeded in a 24-well plate in DMEM medium with 10% FBS, in humidified atmosphere (5% CO2) at 37°C. Once the cells incubated in the exponential growth phase, serum-contained medium was removed and replaced by serum-deprived DMEM supplemented with 1% N1 supplement (Sigma-Aldrich). […] 8Gy radiation was performed 6 h after the onset of initial treatment by Faxitron CP-160 (Faxitron X-rays, Lincolnshire, UK). Medium was changed every day. Forty-eight hours following the treatment, MTS reagent was diluted (1:5) in U87MG cell medium and incubated for 2 h at 37°C. The absorbance was measured at 492 nm using Multiskan® microplate spectrophotometer (Thermo Scientific).
Depending on the condition considered, the cells were placed throughout the experiment in a conventional 21% O2 incubator at 37°C/5% CO2 (normoxia) or 0.4% O2 (hypoxia) at 37°C/5% CO2 in an InVivO2 400 SCI-tive hypoxia workstation (Ruskinn); they are only placed in isolated flasks for the duration of the irradiations.

U87MG cells [3] = assay: Clonogenic assay by crystal violet coloration; type: cell-based, Human; settings: 1 μM
Protocol: Irradiation was performed with the CP-160 cabinet x-ray system (Faxitron, Edimex, Le Plessis Grammoire, Angers, France) which delivers a dose of 1,5 grays by min. […] Irradiation was performed with cells covered.
Once the cells incubated in the exponential growth phase, serum-contained medium was removed and replaced by serum-deprived DMEM supplemented with 1 % N1 supplement. […] 8Gy radiation was performed 6 h after the treatment by Faxitron CP-160.

[4] = system: mTOR phosphorylation (Ser2448); assay: Western blot p-mTOR/HSC70; type: cell-based, Human; settings: U87MG, 1 μM, serum-free medium, 21 and 0.4% O2, 16 h
[5] = system: HIF-1α protein expression; assay: Western blot HIF-1α; type: cell-based, Human; settings: U87MG, 1 μM, 21 and 0.4% O2, 0Gy
Protocol: (§1) U87MG cells (2.4 × 10^5 cells/mL) harvested in the exponential growth phase were seeded in dishes in DMEM medium with 10% FBS, at 37°C in humidified atmosphere containing 5% CO2 and 21 or 0.4% O2. Once the cells incubated in the exponential growth phase, serum-contained medium was removed and replaced by serum-deprived DMEM supplemented with 1% N1 supplement. […] 8Gy radiation was performed 6 h after the treatment by Faxitron CP-160 (cf. section Irradiation Procedure).
(§2) Cells were scrapped and lysed by sonication for 10 s.
(§3) Equal amounts of protein from each sample, estimated by the Bio-Rad Protein Assay (Richmond, CA), were separated by electrophoresis through a 4–20% SDS-polyacrylamide gel (Mini-protean® TGX™ Ge, BioRad), transferred to PVDF membranes (AmershamHybond, GE Healthcare, Buckinghamshire, UK) and blocked with 4% non-fat dry milk in 1X TBS plus 0.1% Tween 20 at RT for 1 h. The membranes were washed and incubated with a primary antibody diluted in 2% BSA in 1X TBS plus 0.1% Tween 20 overnight at 4°C. The membranes were then washed and incubated again for 1 h at RT with peroxidase-conjugated anti-rabbit or anti-mouse secondary antibody. The bound antibody was detected using the enhanced chemiluminescence reagent kit SuperSignal West Femto (Thermo Scientific, Waltham, MA, USA) and read with a bioluminescence detector Image Quant Las 4000 (GE Healthcare, USA).

[6] = system: phosphorylation of Akt on Ser473; assay: Western blot Akt-p; type: cell-based, Human; settings: U87MG, 1 μM, 21 and 0.4% O2, 0Gy
Protocol: as §1, §2, §3

[7] = Spectral analysis of rapamycin stability in Labrafac; type: physicochemical; settings: short cycles of heating and cooling at 70°C
Excerpt: Spectral analysis was then made by use of the CLARIOstar microplate reader (BMG Labtech, Champigny-sur-Marne, France).

[8] = no reference given; cited from earlier work
[9] = system: 9L cells (rat glioma cells); design: method as in Tyler et al., 2011; settings: in vitro, ref Tyler et al., 2011; cited from earlier work

With `CO[C@H]1C[C@@H]2CC[C@@H](C)[C@@](O)(O2)C(=O)C(=O)N2CCCC[C@H]2C(=O)O[C@H]([C@H](C)C[C@@H]2CC[C@@H](O)[C@H](OC)C2)CC(=O)[C@H](C)/C=C(\C)[C@@H](O)[C@@H](OC)C(=O)[C@H](C)C[C@H](C)/C=C/C=C/C=C/1C` [Rapamycin] the “Degradation at 90°C in oil” value ([1]; 90°C, 3 h, whatever the oil used) was “completely degraded”, the Dissolution rate ([1]; Captex 8000, 90°C) was 0% and the Dissolved rapamycin ([1]; Captex 8000, 90°C, initial 16.8 mg/mL) was 0 mg/mL. It also gave a Dissolution rate ([1]; Captex 8000, RT) of 9.5%, a Dissolved rapamycin ([1]; Captex 8000, RT, initial 19.0 mg/mL) of 1.8 mg/mL and a Dissolution rate ([1]; Labrafac, 90°C) of 0%. The Dissolved rapamycin ([1]; Labrafac, 90°C, initial 21.1 mg/mL) was 0 mg/mL, the Dissolution rate ([1]; Labrafac, RT) was 6.3% and the Dissolved rapamycin ([1]; Labrafac, RT, initial 24.0 mg/mL) was 1.5 mg/mL. It also gave a Dissolution rate ([1]; Miglyol 812, 90°C) of 0%, a Dissolved rapamycin ([1]; Miglyol 812, 90°C, initial 17.1 mg/mL) of 0 mg/mL and a Dissolution rate ([1]; Miglyol 812, RT) of 7.3%. It also gave a Dissolved rapamycin ([1]; Miglyol 812, RT, initial 19.2 mg/mL) of 1.4 mg/mL, an IC50 (U87MG cells [2]; 0.4% pO2 (hypoxia)) of 34.6 µM and an IC50 (U87MG cells [2]; 21% pO2 (normoxia)) of 20.5 µM. The “Synergistic effect with radiation treatment (clonogenic assay)” value (U87MG cells [3]; 8Gy 6 h after treatment, 21 or 0.4% O2) was “do not exert any synergistic effect”, the “Effect on cell survival (clonogenic assay)” value (U87MG cells [3]; 21 or 0.4% O2, 10 days, significant at 0.4% O2) was “only moderate effects” and the “Inhibition of mTOR phosphorylation (Ser2448)” value [4] was “strong inhibition of mTOR phosphorylation”. The HIF-1α protein expression [5] was “reduced”, the “Akt-p protein level (Ser473)” value [6] was “enhance Akt-p protein level” and the “Stability of rapamycin in Labrafac” value [7] was “confirmed”. The logP [8] was 4.3 and the “concentration causing growth inhibition” value [9] was 0.01 µg/mL.
